We go through 35 molecules from patent US11478466B2, “Small molecule promoting osteoblast differentiation” (Cornell University, priority 2019, dated 2022).

Test [1] concerns alkaline phosphatase (ALP). Conditions: for Fluo. Z Score: SAR of library and proprietary analogs, AttoPhos assay, C2C12; for RFU Score Threshold ≥ 800: Ex 450/Em 580 nm, rank in brackets not taken; for Fluorescence Z Score Threshold ≥ 10: Z score on DMSO control wells; for RFU Score (10 μM): 154-analog library, C2C12, duplicate.
The subject of test [2] is alkaline phosphatase (ALP). The test is described as follows: cells. Conditions: Mus musculus; for activation at 10 µM: C2C12, 96 h.
[3] abbreviates: primary screen, 10 μM, C2C12, 4 days.
The mark [4] stands for this setting: read-out: NPA Score Threshold ≥ 5.0 (normalized percent activation).

Read-outs that look alike come from different tables or passages of the source.

The EC50 is the concentration needed to bring the measured effect to its halfway point. On to `O=C(Nc1ccc(O)cc1)c1cc2cc(Cl)ccc2[nH]c1=O` [BT351], for which the “Fluo. Z Score” value in test [1] is 1.48 ± 1.26. This molecule also displayed a half-maximal effective concentration (EC50) in test [2] (C2C12) of 20.9 µM.
For `CC1(C)OB(c2c(C(=O)O)c(=O)[nH]c3ccc(Cl)cc23)OC1(C)C` [BT353], in that order: 3.15 ± 0.34 and 5.31 µM.
In the case of `CC(C)N1CCC(SCc2ccc(F)cc2C#N)C1=O` (stereo not drawn) [RU-0201425], in test [1] (setting [3]), the “RFU Score Threshold ≥ 800” value was “Below Threshold” and the “Fluorescence Z Score Threshold ≥ 10” value was “Below Threshold”. Further, in test [2] (setting [4]), the activation at 10 µM amounted to 5.69%.
Turning to `O=C(NC1CCN(c2ccc(F)cc2)CC1)N(CC1CCOC1)C1CC1` (stereo not drawn) [RU-0219256], in test [1] (setting [3]), the “RFU Score Threshold ≥ 800” value is “Below Threshold” and the “Fluorescence Z Score Threshold ≥ 10” value is recorded as “Below Threshold”. In test [2] (setting [4]), the activation at 10 µM is 5.69%.
For `CCCN(C)CC1CCN(C(C)C(=O)Nc2ccc(C(F)(F)F)cc2)C1` (stereo not drawn) [RU-0219355], in test [1] (setting [3]), the “RFU Score Threshold ≥ 800” value is 819 (28) and the “Fluorescence Z Score Threshold ≥ 10” value is “Below Threshold”. The activation at 10 µM in test [2] (setting [4]) came out at 6.14%.
`Cc1cc(C)c2[nH]c(=O)c(-c3c(-c4ccccc4)ncn3CCCO)cc2c1` [RU-0220396]: the “Fluo. Z Score” value in test [1] is recorded as −0.3 ± 0.20. Moreover, the EC50 in test [2] (C2C12) is 2.63 µM.
With `CO[C@H]1CN(Cc2cccc(Cl)c2Cl)CC[C@H]1N` [RU-0221236], in test [1] (setting [3]), the “RFU Score Threshold ≥ 800” value is “Below Threshold” and the “Fluorescence Z Score Threshold ≥ 10” value was “Below Threshold”. In test [2] (setting [4]), the activation at 10 µM turned out to be 5.13%.
For `O=C(NC1CC1)C1CCCN(C2CCN(c3ccc(C(F)(F)F)cn3)CC2)C1` (stereo not drawn) [RU-0221613], in test [1] (setting [3]), the “RFU Score Threshold ≥ 800” value was “Below Threshold” and the “Fluorescence Z Score Threshold ≥ 10” value is recorded as “Below Threshold”. Also, the activation at 10 µM in test [2] (setting [4]) is 5%.
For the molecule `c1ccc(-c2nc[nH]c2-c2ccccc2Cn2cccn2)cc1` [RU-0222072], the “RFU Score (10 μM)” value in test [1] (10 μM) is reported as 425. In test [2], this molecule came in with an activation at 10 µM of 5.05%.
With `CC(C)c1nnc(CN2C[C@H]3CC=CC[C@H]3C2)o1` [RU-0223925], in test [1] (setting [3]), the “RFU Score Threshold ≥ 800” value is recorded as 1120 (6) and the “Fluorescence Z Score Threshold ≥ 10” value is reported as 18.94 (8). Besides, in test [2] (setting [4]), the activation at 10 µM was determined as 11.2%.
In the case of `Cc1c(-c2ccccc2F)[nH]c2ccc(CNS(=O)(=O)N3CCCC3)cc12` [RU-0225107], in test [1] (setting [3]), the “RFU Score Threshold ≥ 800” value was 805 (34) and the “Fluorescence Z Score Threshold ≥ 10” value is listed as “Below Threshold”. Also, the activation at 10 µM in test [2] (setting [4]) was determined as 5.07%.
In the case of `Cc1cc(C)c2[nH]c(=O)c(CN3CCC4(CCCNC4)C3)cc2c1` (stereo not drawn) [RU-0227342], in test [1] (10 μM), the “RFU Score (10 μM)” value was determined as 591. This molecule also had an activation at 10 µM in test [2] of 11%.
In the case of `Cc1cc(C)c2[nH]c(=O)c(CN3CCC4(CCOCC4)CC3)cc2c1` [RU-0227345], the “RFU Score (10 μM)” value in test [1] (10 μM) came out at 384. The activation at 10 µM in test [2] amounted to 3.6%.
As for `CC(=O)NCCC1CCCCN1Cc1cc2cc(C)cc(C)c2[nH]c1=O` (stereo not drawn) [RU-0227648], the “RFU Score (10 μM)” value in test [1] (10 μM) is listed as 494. In test [2], this molecule displayed an activation at 10 µM of 7.48%.
Turning to `O=C(c1[nH]cnc1-c1ccccc1)N1CC[C@H](CO)[C@H](O)C1` [RU-0227868], in test [1] (10 μM), the “RFU Score (10 μM)” value is on record as 505. The molecule also yielded an activation at 10 µM in test [2] of 7.88%.
For the molecule `Cc1cc(C)c2[nH]c(=O)c(CN3CCOC(CN)C3)cc2c1` (stereo not drawn) [RU-0228809], in test [1] (10 μM), the “RFU Score (10 μM)” value is given as 341. This molecule also gave an activation at 10 µM in test [2] of 1.81%.
For `CC1CCN(C(=O)COc2ccccc2-c2[nH]cnc2-c2ccccc2)CC1` [RU-0228904], in that order: 590 and 10.9%.
On to `OCc1ccc(CN2CCCC(COc3ccccc3F)C2)o1` (stereo not drawn) [RU-0229103], for which, in test [1] (setting [3]), the “RFU Score Threshold ≥ 800” value is listed as 1980 (2) and the “Fluorescence Z Score Threshold ≥ 10” value is listed as 46.85 (2). Also, the activation at 10 µM in test [2] (setting [4]) is 6.82%.
Turning to `CN(C)CCC1CN(C(=O)c2[nH]cnc2-c2ccccc2)CCO1` (stereo not drawn) [RU-0231240], the “RFU Score (10 μM)” value in test [1] (10 μM) was 596. Also, the activation at 10 µM in test [2] worked out at 11.1%.
Consider `COc1ccc(-c2[nH]cnc2-c2ccccc2)cc1CN(C)C` [RU-0231652], for which the “RFU Score (10 μM)” value in test [1] (10 μM) was determined as 299. The molecule further registered an activation at 10 µM in test [2] of 0.62%.
With `Cc1ccccc1OCCCN(C)c1nc(-c2cccnc2)nc2c1CNC2` [RU-0231961], in test [1] (setting [3]), the “RFU Score Threshold ≥ 800” value is on record as “Below Threshold” and the “Fluorescence Z Score Threshold ≥ 10” value is listed as “Below Threshold”. The activation at 10 µM in test [2] (setting [4]) amounted to 5.5%.
In the case of `c1ccc(-c2nc[nH]c2-c2cccc(CN3CCOCC3)c2)cc1` [RU-0232369], in test [1] (10 μM), the “RFU Score (10 μM)” value came out at 294. In test [2], this molecule registered an activation at 10 µM of 0.43%.
As for `O=C(c1[nH]cnc1-c1ccccc1)N1CCCC(Nc2ccc(F)cc2)C1` (stereo not drawn) [RU-0236307], the “RFU Score (10 μM)” value in test [1] (10 μM) was found to be 473. Further, the activation at 10 µM in test [2] is 6.76%.
Regarding `Cc1cc(C)n(CC(C)Nc2nc(-c3ccncc3)nc3c2CNC3)n1` (stereo not drawn) [RU-0236897], in test [1] (setting [3]), the “RFU Score Threshold ≥ 800” value is listed as “Below Threshold” and the “Fluorescence Z Score Threshold ≥ 10” value was “Below Threshold”. Further, in test [2] (setting [4]), the activation at 10 µM stood at 5.32%.
As to `CCc1ncc2c(n1)CN(C(=O)c1[nH]cnc1-c1ccccc1)C2` [RU-0237095], the “RFU Score (10 μM)” value in test [1] (10 μM) was 453. Also, in test [2], the activation at 10 µM came out at 6.04%.
On to `COc1ccc(-c2n[nH]cc2-c2[nH]cnc2-c2ccccc2)cc1` [RU-0237450], for which the “RFU Score (10 μM)” value in test [1] (10 μM) was determined as 466. Besides, the activation at 10 µM in test [2] was 6.49%.
Consider `CCc1cnc(C)nc1N1CCCC(Cc2cccnc2)C1` (stereo not drawn) [RU-0238003, 5-ethyl-2-methyl-4-[3-(pyridin-3-ylmethyl)piperidin-1-yl]pyrimidine], for which, in test [1] (setting [3]), the “RFU Score Threshold ≥ 800” value is on record as 1340 (3) and the “Fluorescence Z Score Threshold ≥ 10” value is reported as 36.44 (3). Besides, the “NPA Score Threshold ≥ 5.0 (normalized percent activation)” value in test [1] (primary screen, 10 μM, C2C12, 4 days, normalized against rhBMP4 positive and DMSO negative controls) is “Below Threshold”. Further, in test [2] (C2C12, read-out: Measured EC50), the EC50 was greater than 40 µM.
On to `Cc1ccc(-n2cc(CN3CCCC(Cn4ccnc4C)C3)cn2)cc1C` (stereo not drawn) [RU-0238394], for which, in test [1] (setting [3]), the “RFU Score Threshold ≥ 800” value is recorded as 914 (15) and the “Fluorescence Z Score Threshold ≥ 10” value is on record as 12.45 (19). Moreover, the activation at 10 µM in test [2] (setting [4]) is 5.54%.
For the molecule `Cc1cc(C)c2[nH]c(=O)c(CN3CCN4CCN(C)CC4C3)cc2c1` (stereo not drawn) [RU-0238998], the “RFU Score (10 μM)” value in test [1] (10 μM) was 469. In test [2], this molecule came in with an activation at 10 µM of 6.62%.
With `COc1cc(OC)c(-c2[nH]cnc2-c2ccccc2)c(OC)c1` [RU-0239439], the “RFU Score (10 μM)” value in test [1] (10 μM) stood at 472. In test [2], this molecule showed an activation at 10 µM of 6.72%.
Consider `Cc1nc2cc(-c3cccc4ccnn34)ccc2s1` [RU-0239646], for which, in test [1] (setting [3]), the “RFU Score Threshold ≥ 800” value is listed as “Below Threshold” and the “Fluorescence Z Score Threshold ≥ 10” value is given as “Below Threshold”. Also, the activation at 10 µM in test [2] (setting [4]) came to 5.22%.
Consider `CCCC(C)c1nnc(NC(=O)c2ccccc2-n2cncn2)s1` (stereo not drawn) [RU-0242581], for which, in test [1] (setting [3]), the “RFU Score Threshold ≥ 800” value is 849 (24) and the “Fluorescence Z Score Threshold ≥ 10” value is recorded as “Below Threshold”. Besides, in test [2] (setting [4]), the activation at 10 µM is 5.51%.
On to `CN(C)CCNc1cc(-c2ccc(Cl)cc2F)c2cc[nH]c2n1` [RU-0242925], for which, in test [1] (setting [3]), the “RFU Score Threshold ≥ 800” value is “Below Threshold” and the “Fluorescence Z Score Threshold ≥ 10” value is reported as “Below Threshold”. In addition, the activation at 10 µM in test [2] (setting [4]) was determined as 5.73%.
For the molecule `Cc1nc2cc(C(=O)N3CCNC(=O)C3)ccc2s1` [RU-0243566], in test [1] (setting [3]), the “RFU Score Threshold ≥ 800” value is recorded as “Below Threshold” and the “Fluorescence Z Score Threshold ≥ 10” value is recorded as “Below Threshold”. Further, the activation at 10 µM in test [2] (setting [4]) is 5.55%.
As for `CN1CC2(CCCN(C(=O)c3[nH]cnc3-c3ccccc3)CC2)OC1=O` (stereo not drawn) [RU-0245926], the “RFU Score (10 μM)” value in test [1] (10 μM) stood at 558. In test [2], this molecule displayed an activation at 10 µM of 9.73%.
